Experiments:
Genome polyprotein = Genome polyprotein (Coxsackievirus B3 (strain Nancy), UniProt P03313); experiment: Enzyme Inhibition Assay; conditions: pH 6.5; 25 °C
Procedure: (§1) Peptidomimetic inhibitors against CVB3 3Cpro and SARS-CoV 3CLpro. The inhibition constant of SARS 3CLpro was analyzed with reverse-phase HPLC using a C-18 column.

[1] = molecular target: Replicase polyprotein 1ab (Severe acute respiratory syndrome coronavirus, UniProt P0C6X7); experiment: Enzyme Inhibition Assay; conditions: pH 6.5; 25 °C
Procedure: as §1

Sequence of Genome polyprotein (P03313 1541-1723 limits assumed): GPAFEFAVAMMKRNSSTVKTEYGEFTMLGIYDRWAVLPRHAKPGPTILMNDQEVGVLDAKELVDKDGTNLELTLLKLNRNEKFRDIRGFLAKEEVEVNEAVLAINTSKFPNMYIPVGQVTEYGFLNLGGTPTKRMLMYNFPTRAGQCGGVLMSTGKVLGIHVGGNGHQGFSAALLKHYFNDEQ

`CC(=O)CC=C(C[C@@H]1CCNC1=O)NC(=O)[C@H](CC(C)C)NC(=O)[C@H](CNC(=O)C(C)(C)C)NC(=O)OCc1ccccc1` [TG-0204998] gave a Ki (Genome polyprotein) of 800 nM.
In the case of `CC(C)C[C@H](NC(=O)[C@@H](NC(=O)OCc1ccccc1)C(C)OC(C)(C)C)C(=O)NC(=CCC(=O)C1CC1)C[C@@H]1CCNC1=O` (stereo partly specified) [TG-0205486], the Ki (Genome polyprotein) is reported as 400 nM.
Compound `C[C@H](OC(C)(C)C)[C@H](NC(=O)OCc1ccccc1)C(=O)N[C@@H](CC1CCCCC1)C(=O)N[C@H](C=O)C[C@@H]1CCNC1=O` [benzyl N-[(1S,2S)-2-(tert-butoxy)-1-{[(1S)-2-cyclohexyl-1-{[(2S)-1-oxo-3-[(3S)-2-oxopyrrolidin-3-yl]propan-2-yl]carbamoyl}ethyl]carbamoyl}propyl]carbamate] has a Ki [1] of 54 nM and a Ki (Genome polyprotein) of 2500 nM.
In the case of `CCOC(=O)/C=C/[C@H](C[C@@H]1CCNC1=O)NC(=O)[C@H](CC(C)C)NC(=O)[C@@H](NC(=O)OCc1ccccc1)C(C)OC(C)(C)C` (stereo partly drawn) [ethyl (2E,4S)-4-[(2S)-2-[(2S,3S)-2-{[(benzyloxy)carbonyl]amino}-3-(tert-butoxy)butanamido]-4-methylpentanamido]-5-[(3S)-2-oxopyrrolidin-3-yl]pent-2-enoate], the Ki [1] is reported as 58 nM and the Ki (Genome polyprotein) is reported as 1500 nM.

From BindingDB's records for doi:10.1074/jbc.M807947200 (National Yang-Ming University, 2009)
